Consider 32 compounds from US20220089609A1, “SUBSTITUTED QUINAZOLINONE DERIVATIVES AND THEIR USE AS POSITIVE ALLOSTERIC MODULATORS OF MGLUR4” (DOMAIN THERAPEUTICS, priority 2018, published 2022).

Molecules are shown by their SMILES. pEC50: −log10 of the molar value. Counter-ions that a name gives are not always drawn. Bounds are passed on as bounds.

Tested on in the first series: not given
Experiment: not given
Conditions: not given
For the compound `Cc1cc(CN2CCOCC2)cc2c(=O)[nH]c(-c3cc(C(F)(F)F)ccn3)nc12` (as salt: hydrochloride) [Compound 115, 8-methyl-6-(morpholinomethyl)-2-[4-(trifluoromethyl)-2-pyridyl]-3H-quinazolin-4-one hydrochloride], the melting point (as a rule, the temperature of the solid-liquid transition) is > 250 °C. On to `Cc1cnc(-c2nc3ccc(OCCCc4ccncc4)cc3c(=O)[nH]2)cn1` (as salt: hydrochloride) [Compound 13, 2-(5-methylpyrazin-2-yl)-6-[3-(4-pyridyl)propoxy]-3H-quinazolin-4-one dihydrochloride], for which the melting point was > 250 °C.

For `Cc1cc(CCN2CCOCC2)cc2c(=O)[nH]c(-c3cc4cccn4cn3)nc12` (as salt: hydrochloride) [Compound 124, 8-Methyl-6-(2-morpholin-4-yl-ethyl)-2-pyrrolo[1,2-c]pyrimidin-3-yl-3H-quinazolin-4-one hydrochloride], the melting point is > 250 °C.

As to `Cc1cc(CCN2CCOCC2)cc2c(=O)[nH]c(-c3cc(C(F)(F)F)ccn3)nc12` (as salt: hydrochloride) [Compound 117, 8-methyl-6-(2-morpholinoethyl)-2-[4-(trifluoromethyl)-2-pyridyl]-3H-quinazolin-4-one hydrochloride], the melting point was > 250 °C.

`O=c1[nH]c(-c2cc(C3CC3)ccn2)nc2ccc(OCCCc3ccncc3)cc12` (as salt: hydrochloride) [Compound 19, 2-(4-cyclopropyl-2-pyridyl)-6-[3-(4-pyridyl)propoxy]-3H-quinazolin-4-one dihydrochioride] displayed a melting point of 110 to 156 °C. Consider `Cc1nc(-c2nc3ccc(OCCCc4ccncc4)cc3c(=O)[nH]2)co1` (as salt: hydrochloride) [Compound 22, 2-(2-Methyl-oxazol-4-yl)-6-(3-pyridin-4-yl-propoxy)-3H-quinazolin-4-one hydrochloride], for which the melting point is > 250 °C.

On to `Cc1cc(CN2CCN(C)CC2)cc2c(=O)[nH]c(-c3cc4ccsc4cn3)nc12` (as salt: hydrochloride) [Compound 132, 8-Methyl-6-[(4-methylpiperazin-1-yl)methyl]-2-thieno[2,3-c]pyridin-5-yl-3H-quinazolin-4-one dihydrochloride], for which the melting point is > 250 °C.

Regarding `O=c1[nH]c(-c2cc(Cl)ccn2)nc2ccc(OCCCc3ccncc3)cc12` (as salt: hydrochloride) [Compound 15, 2-(4-chloro-2-pyridyl)-6-[3-(4-pyridyl)propoxy]-3H-quinazolin-4-one hydrochloride], the melting point fell in the range of 232 to 241 °C. `COCC1CCN(Cc2cc(C)c3nc(-c4cc5sccc5cn4)[nH]c(=O)c3c2)CC1` (as salt: hydrochloride) [Compound 157, 6-((4-(Methoxymethyl)piperidin-1-yl)methyl)-8-methyl-2-(thieno[3,2-c]pyridin-6-yl)quinazolin-4(3H)-one hydrochloride] yielded a melting point of 200 to 210 °C.

`Cc1cc(CCN2CCOCC2)nc2c(=O)[nH]c(-c3cc(C(F)(F)F)ccn3)nc12.Cl` registered a melting point of 168 to 173 °C. Same read-out and setting: to `O=c1[nH]c(-c2cc(C(F)(F)F)ccn2)nc2c(Cl)cc(CCN3CCOCC3)cc12` (as salt: hydrochloride) [Compound 154, 8-Chloro-6-(2-morpholinoethyl)-2-(4-(trifluoromethyl)pyridin-2-yl)quinazolin-4(3H)-one hydrochloride] belongs > 250 °C.

In the case of `O=c1[nH]c(-c2cccc(C(F)(F)F)n2)nc2ccc(OCCCc3ccncc3)cc12` (as salt: hydrochloride) [Compound 17, 6-[3-(4-pyridyl)propoxy]-2-[6-(trifluoromethyl)-2-pyridyl]-3H-quinazolin-4-one hydrochloride], the melting point was 238 to 250 °C. Still for that read-out and setting: the value for `Cc1cc(CN2CCOC(C)(C)C2)cc2c(=O)[nH]c(-c3cc4sccc4cn3)nc12` (as salt: hydrochloride) [Compound 153, 6-[(2,2-Dimethylmorpholin-4-yl)methyl]-8-methyl-2-thieno[3,2-c]pyridin-6-yl-3H-quinazolin-4-one hydrochloride] was 220 to 240 °C; that for `COC1CCN(Cc2cc(C)c3nc(-c4cc5sccc5cn4)[nH]c(=O)c3c2)CC1` (as salt: hydrochloride) [Compound 152, 6-[(4-Methoxy-1-piperidyl)methyl]-8-methyl-2-thieno[3,2-c]pyridin-6-yl-3H-quinazolin-4-one hydrochloride] was 205 to 215 °C.

For the next series, the target named is T1, human mGluR4 (hmGluR4) (Homo sapiens, UniProt Q14833).
T1 construct: expressed in transfected cells; host or cells: HEK-293 cells, transient co-transfection by electroporation
T1 sequence (Q14833 33-912): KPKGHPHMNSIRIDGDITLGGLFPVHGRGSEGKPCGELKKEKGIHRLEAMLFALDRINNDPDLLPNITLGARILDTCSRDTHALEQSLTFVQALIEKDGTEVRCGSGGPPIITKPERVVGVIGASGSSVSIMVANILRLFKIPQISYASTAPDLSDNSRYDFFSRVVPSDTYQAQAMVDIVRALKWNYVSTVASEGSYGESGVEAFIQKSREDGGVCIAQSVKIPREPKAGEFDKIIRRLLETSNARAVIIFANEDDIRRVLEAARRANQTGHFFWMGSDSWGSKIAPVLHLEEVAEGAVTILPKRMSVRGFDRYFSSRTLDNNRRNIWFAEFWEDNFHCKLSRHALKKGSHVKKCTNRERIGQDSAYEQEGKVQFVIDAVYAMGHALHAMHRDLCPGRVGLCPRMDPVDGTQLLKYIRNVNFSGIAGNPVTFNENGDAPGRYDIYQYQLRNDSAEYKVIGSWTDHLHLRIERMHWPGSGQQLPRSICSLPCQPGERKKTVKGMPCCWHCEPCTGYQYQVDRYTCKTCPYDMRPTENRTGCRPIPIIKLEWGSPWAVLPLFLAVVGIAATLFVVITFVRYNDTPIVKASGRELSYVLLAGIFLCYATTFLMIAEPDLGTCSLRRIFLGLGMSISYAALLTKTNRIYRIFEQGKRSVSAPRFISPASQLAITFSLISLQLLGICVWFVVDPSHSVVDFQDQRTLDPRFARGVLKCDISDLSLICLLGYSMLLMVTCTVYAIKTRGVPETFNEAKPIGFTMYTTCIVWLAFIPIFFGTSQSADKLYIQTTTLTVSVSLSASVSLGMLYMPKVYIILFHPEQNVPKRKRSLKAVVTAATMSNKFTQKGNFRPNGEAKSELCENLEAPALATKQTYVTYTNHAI
Briefly: Calcium assay EC50 determination, positive allosteric modulator activity on hmGluR4 transiently over-expressed in HEK-293 cells. Format: cell-based. Conditions: PAM mode with EC20 glutamate; hmGluR4 in HEK-293 cells; intracellular calcium (Fluo4AM); read-out: mGluR4 positive allosteric modulator activity, half maximal effective concentration (EC50). An outline of the steps:
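HEK-293 cells transiently co-transfected with hmGluR4, chimeric G protein and glutamate transporters; Fluo4AM calcium read (ex 485/em 525 nm) on FLIPR Tetra. Compound alone 10 min for agonism, then EC20 glutamate with 3 min recording for PAM activity, versus buffer or EC20 glutamate basal.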
For orientation: A change in cytosolic calcium serves as a functional read-out for many receptors and channels.
In the case of `Cc1cc(CCN2CCCOCC2)cc2c(=O)[nH]c(-c3cnc4sccc4c3)nc12` [Compound 121, 8-Methyl-6-(2-[1,4]oxazepan-4-yl-ethyl)-2-thieno[2,3-b]pyridin-5-yl-3H-quinazolin-4-one hydrochloride], the pEC50 was 6.00 to 7.00.

As to `O=c1[nH]c(-c2cc3ccsc3cn2)nc2c(F)cc(OCCCc3ccncc3)cc12` [Compound 75, 8-Fluoro-6-(3-pyridin-4-yl-propoxy)-2-thieno[2,3-c]pyridin-5-yl-3H-quinazolin-4-one], the pEC50 is 6.00 to 7.00. For the compound `Cc1cc(OC2CCN(C3COC3)CC2)cc2c(=O)[nH]c(-c3cc(C(F)(F)F)ccn3)nc12` [Compound 104, 8-Methyl-6-(1-oxetan-3-yl-piperidin-4-yloxy)-2-(4-trifluoromethyl-pyridin-2-yl)-3H-quinazolin-4-one], the pEC50 was 6.00 to 7.00.

As for `Cc1cc(OCC2CCOCC2)cc2c(=O)[nH]c(-c3cc4ccsc4cn3)nc12` [Compound 76, 8-Methyl-6-(tetrahydro-pyran-4-ylmethoxy)-2-thieno[2,3-c]pyridin-5-yl-3H-quinazolin-4-one], the pEC50 is ≥ 7.00. With `Cc1cc(O[C@@H]2CC(=O)N(C)C2)cc2c(=O)[nH]c(-c3cc4sccc4cn3)nc12` [Compound 140-R, 8-Methyl-6-[(3R)-1-methyl-5-oxo-pyrrolidin-3-yl]oxy-2-thieno[3,2-c]pyridin-6-yl-3H-quinazolin-4-one], the pEC50 is ≥ 7.00. `O=c1[nH]c(-c2cc(C(F)(F)F)ccn2)nc2c(Cl)cc(CCN3CCOCC3)cc12` [Compound 154, 8-Chloro-6-(2-morpholinoethyl)-2-(4-(trifluoromethyl)pyridin-2-yl)quinazolin-4(3H)-one hydrochloride]: the pEC50 was 6.00 to 7.00. The same measure, in the same setting: to `Cc1ccnc(-c2nc3ccc(OCCCc4ccncc4)cc3c(=O)[nH]2)c1` [Compound 11, 2-(4-methyl-2-pyridyl)-6-[3-(4-pyridyl)propoxy]-3H-quinazolin-4-one dihydrochloride] belongs 6.00 to 7.00; to `O=c1[nH]c(-c2cc(C(F)(F)F)ccn2)nc2ncc(OCCCc3ccncc3)cc12` [Compound 68, 6-(3-Pyridin-4-yl-propoxy)-2-(4-trifluoromethyl-pyridin-2-yl)-3H-pyrido[2,3-d]pyrimidin-4-one hydrochloride], < 5.00. Consider `Cc1cc(O[C@H]2CC(=O)N(C)C2)cc2c(=O)[nH]c(-c3cc4sccc4cn3)nc12` [Compound 140-S, 8-Methyl-6-[(3S)-1-methyl-5-oxo-pyrrolidin-3-yl]oxy-2-thieno[3,2-c]pyridin-6-yl-3H-quinazolin-4-one], for which the pEC50 is ≥ 7.00. Still for that read-out and setting: the value for `O=c1[nH]c(-c2cc3cccn3cn2)nc2ccc(OC3CN(c4ccncn4)C3)cc12` [Compound 27, 6-(1-Pyrimidin-4-yl-azetidin-3-yloxy)-2-pyrrolo[1,2-c]pyrimidin-3-yl-3H-quinazolin-4-one] was < 5.00. In the case of `Cc1cc(OCC2CCOC2)cc2c(=O)[nH]c(-c3cc4ccsc4cn3)nc12` (centres unmarked) [Compound 80, 8-Methyl-6-(tetrahydro-furan-3-ylmethoxy)-2-thieno[2,3-c]pyridin-5-yl-3H-quinazolin-4-one], the pEC50 was ≥ 7.00.

On to `Cc1cc(N2CCC3(CCOCC3)CC2)cc2c(=O)[nH]c(-c3cc4cccn4cn3)nc12` [Compound 108, 8-methyl-6-(3-oxa-9-aza-spiro[5.5]undec-9-yl)-2-pyrrolo[1,2-c]pyrimidin-3-yl-3H-quinazolin-4-one], for which the pEC50 is ≥ 7.00. On to `Cc1cc(CCCN2CCOCC2)cc2c(=O)[nH]c(-c3cc4ccsc4cn3)nc12` [Compound 99, 8-Methyl-6-(3-morpholin-4-yl-propyl)-2-thieno[2,3-c]pyridin-5-yl-3H-quinazolin-4-one hydrochloride], for which the pEC50 is 6.00 to 7.00.

On to `Cc1cc(CN2CCN(C)C(=O)C2)cc2c(=O)[nH]c(-c3cc4sccc4cn3)nc12` [Compound 147, 8-Methyl-6-[(4-methyl-3-oxo-piperazin-1-yl)methyl]-2-thieno[3,2-c]pyridin-6-yl-3H-quinazolin-4-one hydrochloride], for which the pEC50 is ≥ 7.00. Still for that read-out and setting: the value for `Cc1cc(OC[C@H]2CCOC2)cc2c(=O)[nH]c(-c3cc4ccsc4cn3)nc12` [Compound 80-S, S-8-Methyl-6-(tetrahydro-furan-3-ylmethoxy)-2-thieno[2,3-c]pyridin-5-yl-3H-quinazolin-4-one] was ≥ 7.00; that for `Cc1cc(OCCC2CCOCC2)cc2c(=O)[nH]c(-c3cc4ccsc4cn3)nc12` [Compound 79, 8-Methyl-6-[2-(tetrahydro-pyran-4-yl)-ethoxy]-2-thieno[2,3-c]pyridin-5-yl-3H-quinazolin-4-one] was 6.00 to 7.00; that for `Cc1cc(OCCC2COC2)cc2c(=O)[nH]c(-c3cc4ccsc4cn3)nc12` [Compound 77, 8-Methyl-6-(2-oxetan-3-yl-ethoxy)-2-thieno[2,3-c]pyridin-5-yl-3H-quinazolin-4-one] was 6.00 to 7.00.

With `O=c1[nH]c(-c2cc(C(F)(F)F)ccn2)nc2cnc(OCCCc3ccncc3)cc12` [Compound 69, 6-(3-Pyridin-4-yl-propoxy)-2-(4-trifluoromethyl-pyridin-2-yl)-3H-pyrido[3,4-d]pyrimidin-4-one hydrochloride], the pEC50 was 6.00 to 7.00.
